The target in data set [1] is T1, CFTR (Homo sapiens, UniProt P13569, DEL508-508).
T1 construct: endogenous in cells; host or cells: primary human bronchial epithelial cells from CF subjects (F508del/MF)
Put plainly: HBE assay: Ussing chamber assay of CFTR-mediated short-circuit currents in F508del/MF-HBE cells. The data set is classed as cell-based. Particulars: 20% human serum; for HBE Activity at 10 μM (%): single fixed concentration of 10 μM with 1 μM Ivacaftor; for HBE Activity at 10 μM (%) / Emax: 18-24 hours, compared to known Vertex corrector with 18 μM Tezacaftor and 1 μM Ivacaftor; for EC50: range of concentrations in combination with 1 μM Ivacaftor, 18-24 hours at 37° C.; for Emax: with 1 μM Ivacaftor, read-out: HBE Max Activity (%). As for the experimental part:
1. Ussing Chamber Assay of CFTR-Mediated Short-Circuit Currents
Ussing chamber experiments were performed using human bronchial epithelial (HBE) cells derived from CF subjects heterozygous for F508del and a minimal function CFTR mutation (F508del/MF-HBE) and cultured as previously described (Neuberger T, Burton B, Clark H, Van Goor F Methods Mol Biol 2011:741:39-54). After four days the apical media was removed, and the cells were grown at an air liquid interface for >14 days prior to use.
To isolate the CFTR-mediated short-circuit (Isc) current, F508del/MF-HBE grown on Costar® Snapwell™ cell culture inserts were mounted in an Ussing chamber and the transepithelial Isc was measured under voltage-clamp recording conditions (Vhold=0 mV) at 37° C. The basolateral solution contained (in mM) 145 NaCl, 0.83 K2HPO4, 3.3 KH2P04, 1.2 MgCl2, 1.2 CaCl2), 10 Glucose, 10 HEPES (pH adjusted to 7.4 with NaOH) and the apical solution contained (in mM) 145 NaGluconate, 1.2 MgCl2, 1.2 CaCl2), 10 glucose, 10 HEPES (pH adjusted to 7.4 with NaOH) and 30 μM amiloride to block the epithelial sodium channel. Forskolin (20 μM) was added to the apical surface to activate CFTR, followed by apical addition of a CFTR inhibitor cocktail consisting of BPO, GlyH-101, and CFTR inhibitor 172 (each at 20 μM final assay concentration) to specifically isolate CFTR currents. The CFTR-mediated Isc (ρA/cm^2) for each condition was determined from the peak forskolin response to the steady-state current following inhibition.
2. Identification of Corrector Compounds
The activity of the CFTR corrector compounds on the CFTR-mediated Isc was determined in Ussing chamber studies as described above. The F508del/MF-HBE cell cultures were either incubated with the corrector compounds at a range of concentrations in combination with 1 μM Ivacaftor or were incubated with the corrector compounds at a single fixed concentration of 10 μM in combination with 1 μM Ivacaftor for 18-24 hours at 37° C. and in the presence of 20% human serum. The concentration of corrector compounds with 1 μM Ivacaftor during the 18-24 hours incubations was kept constant throughout the Ussing chamber measurement of the CFTR-mediated Isc to ensure compounds were present throughout the entire experiment.

In data set [2] the target is T2, CFTR (Homo sapiens, UniProt P13569). Put plainly: Membrane Potential Dye, Enteroid Assay A. Type of data set: cell-based. Particulars: Enteroid Assay A; for EC50: read-out: Ent. A EC50. The method in brief: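 Enteroid cells were loaded with methyl oxonol membrane potential dye (plus CaCCinh-A01 and Chicago Sky Blue) for 25 min at room temperature. Chloride transport was started by switching to chloride-free gluconate stimulation solution, with fluorescence read for 15 min. Activity was expressed as % of a triple-combination CFTR modulator control (3 μM, 3 μM, 300 nM acute).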
T2 sequence (P13569 with tags, fused parts or gaps DEL508-508): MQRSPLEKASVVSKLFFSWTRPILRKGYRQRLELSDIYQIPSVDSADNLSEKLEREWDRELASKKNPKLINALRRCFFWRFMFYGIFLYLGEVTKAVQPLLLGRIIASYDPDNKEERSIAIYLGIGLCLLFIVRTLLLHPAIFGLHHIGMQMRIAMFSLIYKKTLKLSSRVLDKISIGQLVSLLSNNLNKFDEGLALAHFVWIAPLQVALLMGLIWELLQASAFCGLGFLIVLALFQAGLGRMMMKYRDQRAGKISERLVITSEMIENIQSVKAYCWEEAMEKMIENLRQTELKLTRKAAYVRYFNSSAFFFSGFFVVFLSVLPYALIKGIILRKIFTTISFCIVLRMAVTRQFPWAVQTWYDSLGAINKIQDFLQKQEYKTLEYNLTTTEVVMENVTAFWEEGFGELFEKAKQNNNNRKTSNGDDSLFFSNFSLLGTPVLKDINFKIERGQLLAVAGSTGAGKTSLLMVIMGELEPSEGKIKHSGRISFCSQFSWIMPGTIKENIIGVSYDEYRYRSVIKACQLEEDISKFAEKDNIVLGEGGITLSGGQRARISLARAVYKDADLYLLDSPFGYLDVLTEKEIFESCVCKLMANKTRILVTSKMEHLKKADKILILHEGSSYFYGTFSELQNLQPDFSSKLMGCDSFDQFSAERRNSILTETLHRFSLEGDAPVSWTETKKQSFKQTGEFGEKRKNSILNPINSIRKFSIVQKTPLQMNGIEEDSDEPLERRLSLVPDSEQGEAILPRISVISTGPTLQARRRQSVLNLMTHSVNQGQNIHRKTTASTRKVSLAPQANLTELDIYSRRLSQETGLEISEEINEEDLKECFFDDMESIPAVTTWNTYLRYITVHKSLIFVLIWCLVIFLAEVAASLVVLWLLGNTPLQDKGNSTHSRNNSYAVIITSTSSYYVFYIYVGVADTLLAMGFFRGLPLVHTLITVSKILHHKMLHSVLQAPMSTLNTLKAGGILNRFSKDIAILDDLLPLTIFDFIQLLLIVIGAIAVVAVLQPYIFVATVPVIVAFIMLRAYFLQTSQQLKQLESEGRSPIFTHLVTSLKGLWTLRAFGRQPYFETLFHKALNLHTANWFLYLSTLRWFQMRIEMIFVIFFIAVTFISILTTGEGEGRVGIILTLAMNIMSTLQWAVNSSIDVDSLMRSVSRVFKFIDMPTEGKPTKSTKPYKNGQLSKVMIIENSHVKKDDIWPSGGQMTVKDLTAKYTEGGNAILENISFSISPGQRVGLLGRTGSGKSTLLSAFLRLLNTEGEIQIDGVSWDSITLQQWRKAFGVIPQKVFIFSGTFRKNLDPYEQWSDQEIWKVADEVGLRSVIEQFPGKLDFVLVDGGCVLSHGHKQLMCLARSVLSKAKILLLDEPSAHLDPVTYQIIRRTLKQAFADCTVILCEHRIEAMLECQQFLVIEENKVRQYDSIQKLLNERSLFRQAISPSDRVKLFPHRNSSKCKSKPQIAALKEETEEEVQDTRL

For data set [3] the following is noted: amide bond, 13-membered ring, DMF.
Data set [4] deals with T2, CFTR. Put plainly: Membrane Potential Dye, Enteroid Assay B. Type of data set: cell-based. Particulars: Enteroid Assay B; read-out: Ent. B EC50. Summed up:
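Enteroid cells loaded 25 min at room temperature with 20 μM methyl oxonol plus 30 μM CaCCinh-A01 and 30 μM Chicago Sky Blue, then switched to chloride-free gluconate buffer. Chloride transport was started by chloride-free stimulation solution, with fluorescence read for 15 min.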

A further data set addresses T3, F508del (Homo sapiens, UniProt P13569, DEL508-508).
T3 construct: expressed in transfected cells
Description: 3T3 assay: membrane potential optical assay for F508del correction in NIH 3T3 cells. Type of data set: cell-based. Particulars: NIH 3T3 cells, F508del correction. The method in brief: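 NIH 3T3 mouse fibroblasts stably expressing F508del were incubated with corrector compounds at a range of concentrations for 16–24 h at 37° C, then loaded with a redistribution voltage-sensing dye. A single addition of forskolin under a chloride gradient (gluconate-substituted bath, pH 7.4) gave the membrane-potential response, read by FLIPR.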

The source of these data is patent US20230382924A1, “MODULATORS OF CYSTIC FIBROSIS TRANSMEMBRANE CONDUCTANCE REGULATOR” (VERTEX PHARMACEUTICALS INCORPORATED, priority 2020, published 2023).

SMILES strings stand for the structures. Where two headings read alike, the source gives them in different places.

T1 sequence (P13569 with tags, fused parts or gaps DEL508-508): as above
T3 sequence (P13569 with tags, fused parts or gaps DEL508-508): as above

`O=S1(=O)Nc2nc(Cl)cc(n2)-c2ccccc2CCCNc2cccc1c2` returned a ring closure, isolated yield (from CC1(C)OB(c2ccccc2CCCNc2cccc(S(=O)(=O)Nc3nc(Cl)cc(Cl)n3)c2)OC1(C)C, cc_pd bond, 14-membered ring, Pd(PPh3)4/K2CO3, 1,4-dioxane/water, 11.2 mM, 90.0 °C, 5.0 h) of 19%.
With `Cc1cccc(C)c1-c1cc2nc(n1)NS(=O)(=O)c1cccc(c1)C(=O)N[C@@H](CC(C)(C)C)CO2` [Compound 121], at CFTR [1], the “HBE Activity at 10 μM (%)” value was “+ (+ is <30%)”.
On to `Cc1cccc(CC2CCCCC2)c1-c1cc2nc(n1)NS(=O)(=O)c1cccc(c1)C(=O)N[C@H](CC(C)(C)C)CO2` [Compound 299], for which, on CFTR [1], the EC50 is under 1 µM and the Emax is over 60%.
For the setting “from C=CCCCCCC[C@@H]1COc2cc(-c3ccccc3C=C)nc(n2)N(COC)S(=O)(=O)c2cccc(c2)C(=O)N1, rcm bond, 16-membered ring, Grubbs II, toluene, 16.4 mM, 100.0 °C, 1.5 h”, `COCN1c2nc3cc(n2)-c2ccccc2/C=C/CCCCCC[C@H](CO3)NC(=O)c2cccc(c2)S1(=O)=O` gave a ring closure, isolated yield of 80%.
Take `Cc1cccc(C)c1-c1cc2nc(n1)NS(=O)(=O)c1cccc(c1)C(=O)NC(C(CC(C)C)c1ccc(C(C)(C)C)cc1)CO2` (stereo not shown) [Compound 210]: at CFTR [1], the EC50 is under 1 µM and the Emax was 30 to 60%.
For the compound `Cc1cccc(C)c1-c1cc2nc(n1)NS(=O)(=O)c1cccc(c1)C(=O)N[C@H](CC(C)C)CO2` [Compound 96, (11R)-6-(2,6-Dimethylphenyl)-11-isobutyl-2,2-dioxo-9-oxa-2λ^6-thia-3,5,12,19-tetrazatricyclo[12.3.1.14,8]nonadeca-1(18),4(19),5,7,14,16-hexaen-13-one], the “Ent. A Max Activity” value at CFTR [2] is reported as “+++ (+++ is >600%)”. In addition, the EC50 on CFTR [2], at CFTR [4] and on F508del was under 1 µM in each case. The same compound showed a ring closure, yield after HPLC in data set [3] (from Cc1cccc(C)c1-c1cc(OC[C@H](N)CC(C)C)nc(NS(=O)(=O)c2cccc(C(=O)O)c2)n1, HATU/TEA, 31.8 mM, 25.0 °C, 3.0 h) of 57%.
Consider `Cc1cccc(C)c1-c1cc2nc(n1)NS(=O)(=O)c1cccc(c1)C(=O)NC(C(CC(C)C)c1cccc(C(C)(C)C)c1)CO2` (stereo not shown) [Compound 209], for which, on CFTR [1], the EC50 was under 1 µM.
Compound `CC(C)C[C@@H]1COc2cc(Cl)nc(n2)NS(=O)(=O)c2cccc(c2)C(=O)N1` returned a ring closure, isolated yield (from CC(C)C[C@@H](N)COc1cc(Cl)nc(NS(=O)(=O)c2cccc(C(=O)O)c2)n1, amide bond, 13-membered ring, HATU/Et3N, DMF, 29.1 mM, -5.0 °C, 0.17 h) of 30%.
As for `Cc1cccc(C)c1-c1cc2nc(n1)NS(=O)(=O)c1cccc(c1)C(=O)NC(C(CC(C)C)c1ccc(C(C)(C)C)cc1)CO2` (stereo not shown) [Compound 207], on CFTR [1], the “HBE Activity at 10 μM (%)” value was “+ (+ is <30%)”.
`Cc1cccc(C)c1-c1cc2nc(n1)NS(=O)(=O)c1cccc(c1)C(=O)NC(C1CC3(CCC3)C1)CO2` (stereo not shown) [Compound 50, 6-(2,6-Dimethylphenyl)-2,2-dioxo-11-spiro[3.3]heptan-2-yl-9-oxa-2λ^6-thia-3,5,12,19-tetrazatricyclo[12.3.1.14,8]nonadeca-1(18),4(19),5,7,14,16-hexaen-13-one]: on CFTR [1], the EC50 is under 1 µM and the Emax was over 60%. The compound also returned a ring closure, yield after HPLC in data set [3] (from Cc1cccc(C)c1-c1cc(OCC(N)C2CC3(CCC3)C2)nc(NS(=O)(=O)c2cccc(C(=O)O)c2)n1, CDMT/NMM, 46.6 mM, 25.0 °C, 1.5 h) of 25%.
Turning to `Cc1cccc(C)c1-c1cc2nc(n1)NS(=O)(=O)c1cccc(c1)C(=O)NC(C(CC(C)C)c1ccc(C(C)(C)C)cc1)CO2` (stereo not shown) [Compound 208], the “HBE Activity at 10 μM (%)” value at CFTR [1] is “+++ (+++ is >60%)”.
Consider `Cc1cccc(C)c1-c1cc2nc(n1)NS(=O)(=O)c1cccc(c1)C(=O)NC(C(CC(C)C)c1cccc(C(C)(C)C)c1)CO2` (stereo not shown) [Compound 211], for which, at CFTR [1], the EC50 was under 1 µM and the Emax was over 60%.
On to `Cc1ccc2ccccc2c1-c1cc2nc(n1)NS(=O)(=O)c1cccc(c1)C(=O)N[C@H](CC(C)(C)C)CO2` [Compound 52, (11R)-11-(2,2-Dimethylpropyl)-6-(2-methyl-1-naphthyl)-2,2-dioxo-9-oxa-2λ^6-thia-3,5,12,19-tetrazatricyclo[12.3.1.14,8]nonadeca-1(18),4(19),5,7,14,16-hexaen-13-one], for which, on CFTR [1], the concentration for a half-maximal effect (EC50) is under 1 µM and the Emax is over 60%. The ring closure, yield after HPLC in data set [3] (from Cc1ccc2ccccc2c1-c1cc(OC[C@H](N)CC(C)(C)C)nc(NS(=O)(=O)c2cccc(C(=O)O)c2)n1, HATU/TEA, 44.8 mM, 25.0 °C, 2.0 h) was 25%.
Consider `Cc1cccc(C)c1-c1cc2nc(n1)NS(=O)(=O)c1cccc(c1)C(=O)N[C@H](CC1CC3(CCC3)C1)CO2` [Compound 49, (11R)-6-(2,6-Dimethylphenyl)-2,2-dioxo-11-(spiro[3.3]heptan-2-ylmethyl)-9-oxa-2λ^6-thia-3,5,12,19-tetrazatricyclo[12.3.1.14,8]nonadeca-1(18),4(19),5,7,14,16-hexaen-13-one], for which the “HBE Activity at 10 μM (%)” value on CFTR [1] is “+++ (+++ is >60%)”. In data set [3] (from Cc1cccc(C)c1-c1cc(OC[C@H](N)CC2CC3(CCC3)C2)nc(NS(=O)(=O)c2cccc(C(=O)O)c2)n1, CDMT/NMM, 32.4 mM, 25.0 °C, 1.5 h), this compound yielded a ring closure, yield after HPLC of 49%.
In the case of `Cc1cccc(C)c1-c1cc2nc(n1)NS(=O)(=O)c1cccc(c1)C(=O)NCC(c1ccc(C3(C(F)(F)F)CC3)cc1)O2` (stereo not shown), under “from Cc1cccc(C)c1-c1cc(OC(CN)c2ccc(C3(C(F)(F)F)CC3)cc2)nc(NS(=O)(=O)c2cccc(C(=O)O)c2)n1, amide bond, 13-membered ring, HATU/NaOtBu, THF/DMF, 67.1 mM, 25.0 °C, 0.75 h, 2 steps”, the ring closure, isolated yield came out at 26%.
Consider `Cc1cc2cc(c1)S(=O)(=O)Nc1nc(cc(-c3c(C)cccc3C)n1)OC[C@@H](CC1CCCCC1)NC2=O` [Compound 74, (11R)-11-(Cyclohexylmethyl)-6-(2,6-dimethylphenyl)-16-methyl-2,2-dioxo-9-oxa-2λ^6-thia-3,5,12,19-tetrazatricyclo[12.3.1.14,8]nonadeca-1(18),4(19),5,7,14,16-hexaen-13-one], for which the “Ent. A Max Activity” value at CFTR [2] is “+++ (+++ is >600%)”. For the same compound, the 50% effective concentration (EC50) on CFTR [2] and at F508del was under 1 µM each time. This compound yielded a ring closure, yield after HPLC in data set [3] (from Cc1cc(C(=O)O)cc(S(=O)(=O)Nc2nc(OC[C@H](N)CC3CCCCC3)cc(-c3c(C)cccc3C)n2)c1, HATU/TEA, 39.0 mM, 0.42 h) of 28%.
Consider `Cc1ccc(C)c(-c2cc3nc(n2)NS(=O)(=O)c2cccc(c2)C(=O)N[C@H](CC(C)(C)C)CO3)c1C` [Compound 51, (11R)-11-(2,2-Dimethylpropyl)-6-(2,3,6-trimethylphenyl)-9-oxa-2λ^6-thia-3,5,12,19-tetraazatricyclo[12.3.1.14,8]nonadeca-1(18),4,6,8(19),14,16-hexaene-2,2,13-trione], for which, on CFTR [1], the EC50 was under 1 µM and the Emax is over 60%. In data set [3] (from Cc1ccc(C)c(-c2cc(OC[C@H](N)CC(C)(C)C)nc(NS(=O)(=O)c3cccc(C(=O)O)c3)n2)c1C, CDMT/NMM, 23.7 mM, 25.0 °C, 16.0 h), the ring closure, yield after HPLC is 31%.

Broadly, the EC50 is the midpoint of the concentration-response curve.
